Results published in US20170050957A1, “4-AMINO-6-(HETEROCYCLIC)PICOLINATES AND 6-AMINO-2-(HETEROCYCLIC)PYRIMIDINE-4-CARBOXYLATES AND THEIR USE AS HERBICIDES” (Dow AgroSciences LLC, priority 2013, published 2017).
Read-outs that look alike come from different tables or passages of the source.

Tests used:
[1] = system: Key Broadleaf Weed and Crop Species; assay: Post-emergent Test II herbicidal activity (Table 15); format: in vivo; conditions: post-emergence, 336 h, 14 d; for pest or weed control at 35 g/ha: 35 g ai/ha; for pest or weed control at 70 g/ha: 70 g ai/ha; for pest or weed control at 140 g/ha: 140 g ai/ha
In short: (§1)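 Greenhouse-grown seedlings at first/second true leaf receive a track spray at 187 L/ha, using a highest rate plus two-fold serial dilutions down to 1/16×. Watering is by subirrigation to avoid wash-off. Percent injury (0-100) is judged by eye at 14 d against untreated plants.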

[2] = system: Key Grass and Sedge Weeds as well as Grass Crops; assay: Post-emergent Test II herbicidal activity (Table 16); format: in vivo; conditions: post-emergence, 336 h, 14 d; for pest or weed control at 35 g/ha: 35 g ai/ha; for pest or weed control at 70 g/ha: 70 g ai/ha; for pest or weed control at 140 g/ha: 140 g ai/ha
In short: as §1

[3] = Abutilon theophrasti, velvetleaf (Abutilon theophrasti), read-out: Visual Growth Reduction (%) 14 Days After Application, ABUTH
[4] = Amaranthus retroflexus, redroot pigweed (Amaranthus retroflexus), read-out: Visual Growth Reduction (%) 14 Days After Application, AMARE
[5] = Brassica napus, oilseed rape, canola (Brassica napus), read-out: Visual Growth Reduction (%) 14 Days After Application, BRSNN
[6] = Chenopodium album, lambsquarters (Chenopodium album), read-out: Visual Growth Reduction (%) 14 Days After Application, CHEAL
[7] = Euphorbia heterophylla, wild poinsettia (Euphorbia heterophylla), read-out: Visual Growth Reduction (%) 14 Days After Application, EPHHL
[8] = Helianthus annuus, sunflower (Helianthus annuus), read-out: Visual Growth Reduction (%) 14 Days After Application, HELAN
[9] = Cyperus esculentus, yellow nutsedge (Cyperus esculentus), read-out: Visual Growth Reduction (%) 14 Days After Application, CYPES
[10] = Echinochloa crus-galli, barnyardgrass (Echinochloa crus-galli), read-out: Visual Growth Reduction (%) 14 Days After Application, ECHCG
[11] = Oryza sativa, rice (Oryza sativa), read-out: Visual Growth Reduction (%) 14 Days After Application, ORYSA
[12] = Setaria faberi, giant foxtail (Setaria faberi), read-out: Visual Growth Reduction (%) 14 Days After Application, SETFA
[13] = Triticum aestivum, wheat, spring (Triticum aestivum), read-out: Visual Growth Reduction (%) 14 Days After Application, TRZAS
[14] = Zea mays, maize, corn (Zea mays), read-out: Visual Growth Reduction (%) 14 Days After Application, ZEAMX

Row | SMILES | pest or weed control at 35 g/ha [1, 3] [%] | pest or weed control at 70 g/ha [1, 3] [%] | pest or weed control at 140 g/ha [1, 3] [%] | pest or weed control at 35 g/ha [1, 4] [%] | pest or weed control at 70 g/ha [1, 4] [%] | pest or weed control at 140 g/ha [1, 4] [%] | pest or weed control at 35 g/ha [1, 5] [%] | pest or weed control at 70 g/ha [1, 5] [%] | pest or weed control at 140 g/ha [1, 5] [%] | pest or weed control at 35 g/ha [1, 6] [%] | pest or weed control at 70 g/ha [1, 6] [%] | pest or weed control at 140 g/ha [1, 6] [%] | pest or weed control at 35 g/ha [1, 7] [%] | pest or weed control at 70 g/ha [1, 7] [%] | pest or weed control at 140 g/ha [1, 7] [%] | pest or weed control at 35 g/ha [1, 8] [%] | pest or weed control at 70 g/ha [1, 8] [%] | pest or weed control at 140 g/ha [1, 8] [%] | pest or weed control at 35 g/ha [2, 9] [%] | pest or weed control at 70 g/ha [2, 9] [%] | also measured
1 | COC(=O)c1nc(-c2cc3[nH]ccc3cc2F)cc(N)c1Cl [Compound 1.25] | 0 to 29 | 0 to 29 | 30 to 44 | 75 to 84 | 85 to 94 | 95 to 100 | 60 to 74 | 75 to 84 | 85 to 94 | 0 to 29 | 60 to 74 | 60 to 74 | 0 to 29 | 0 to 29 | 30 to 44 | 0 to 29 | 0 to 29 | 0 to 29 | 0 to 29 | 0 to 29 | pest or weed control at 140 g/ha [2, 9]: 0 to 29%; pest or weed control at 35 g/ha [2, 10]: 0 to 29%; pest or weed control at 70 g/ha [2, 10]: 0 to 29%; pest or weed control at 140 g/ha [2, 10]: 0 to 29%; pest or weed control at 35 g/ha [2, 11]: 0 to 29%; pest or weed control at 70 g/ha [2, 11]: 0 to 29%; pest or weed control at 140 g/ha [2, 11]: 0 to 29%; pest or weed control at 35 g/ha [2, 12]: 0 to 29%; pest or weed control at 70 g/ha [2, 12]: 0 to 29%; pest or weed control at 140 g/ha [2, 12]: 0 to 29%; pest or weed control at 35 g/ha [2, 13]: 0 to 29%; pest or weed control at 70 g/ha [2, 13]: 0 to 29%; pest or weed control at 140 g/ha [2, 13]: 0 to 29%; pest or weed control at 35 g/ha [2, 14]: 0 to 29%; pest or weed control at 70 g/ha [2, 14]: 0 to 29%; pest or weed control at 140 g/ha [2, 14]: 0 to 29%
2 | Nc1cc(-c2cc3[nH]ccc3cc2F)nc(C(=O)O)c1Cl [Compound 1.26] | 0 to 29 | 0 to 29 | 0 to 29 | 75 to 84 | 85 to 94 | 95 to 100 | 85 to 94 | 95 to 100 | 95 to 100 | 0 to 29 | 30 to 44 | 30 to 44 | 0 to 29 | 30 to 44 | 45 to 59 | 0 to 29 | 0 to 29 | 0 to 29 | 0 to 29 | 0 to 29 | pest or weed control at 140 g/ha [2, 9]: 0 to 29%; pest or weed control at 35 g/ha [2, 10]: 0 to 29%; pest or weed control at 70 g/ha [2, 10]: 0 to 29%; pest or weed control at 140 g/ha [2, 10]: 0 to 29%; pest or weed control at 35 g/ha [2, 11]: 0 to 29%; pest or weed control at 70 g/ha [2, 11]: 0 to 29%; pest or weed control at 140 g/ha [2, 11]: 0 to 29%; pest or weed control at 35 g/ha [2, 12]: 0 to 29%; pest or weed control at 70 g/ha [2, 12]: 0 to 29%; pest or weed control at 140 g/ha [2, 12]: 0 to 29%; pest or weed control at 35 g/ha [2, 13]: 0 to 29%; pest or weed control at 70 g/ha [2, 13]: 0 to 29%; pest or weed control at 140 g/ha [2, 13]: 0 to 29%; pest or weed control at 35 g/ha [2, 14]: 0 to 29%; pest or weed control at 70 g/ha [2, 14]: 0 to 29%; pest or weed control at 140 g/ha [2, 14]: 0 to 29%
